Results on eight molecules are retold here after ChEMBL document CHEMBL1212883, “Limonoids from the leaves of Cipadessa baccifera” (J Nat Prod, 2010).

pIC50: −log10 of the molar value.

Common to all, as to format: functional, cell-based
The test system of one assay is SW480. The experiment in a line: Cytotoxicity against human SW480 cells after 72 hrs by MTT assay. The following applies: SW480, 72 h.
The subject of a further assay is A549. The experiment in a line: Cytotoxicity against human A549 cells after 72 hrs by MTT assay. The settings on record: A549, 72 h. On the technique in general: Formazan colour is commonly taken as a measure of viable cells.
The subject of a further assay is MCF7. Nature of the assay: Cytotoxicity against human MCF7 cells after 72 hrs by MTT assay. The following applies: MCF7, 72 h.
In the next assay the test system is SMMC-7721. The experiment in a line: Cytotoxicity against human SMMC7721 cells after 72 hrs by MTT assay. The settings on record: SMMC-7721, 72 h.
A further assay has as its system HL-60. Nature of the assay: Cytotoxicity against human HL60 cells after 72 hrs by MTT assay. The following applies: HL-60, 72 h.

Broadly, the pIC50 is the negative decadic logarithm of the IC50, by convention in mol/L. Low readings indicate a high IC50, high ones a low IC50.

Consider `CC(=O)O[C@H]1C[C@@H](OC(C)=O)[C@@]2(C)CO[C@H]3[C@@H](O)[C@]4(C)[C@H](CC[C@@]5(C)[C@H](c6ccoc6)OC(=O)[C@@H]6O[C@]645)[C@]1(C)[C@@H]32` [CIPADESIN J], for which the pIC50 with SW480 is 4.70; in the assay with A549 it was less than 4.40; in the assay with MCF7 it was less than 4.40; in the assay with SMMC-7721, 4.69; with HL-60 it was less than 4.40.

For `CCC(C)C(=O)O[C@@H]1[C@@H]2OC[C@]3(C)[C@H](OC(C)=O)C[C@H](OC(C)=O)[C@](C)([C@H]4CC[C@@]5(C)[C@H](c6ccoc6)OC(=O)[C@@H]6O[C@@]65[C@]14C)[C@@H]23` (stereo not given in full) [CIPADESIN K], the pIC50 is 4.44 in the assay on SW480; less than 4.40 with A549; less than 4.40 with MCF7; less than 4.40 in the assay on SMMC-7721; less than 4.40 in the assay with HL-60.

For the molecule `CCC(C)C(=O)O[C@@H]1[C@@H]2OC[C@]3(C)[C@H](OC(C)=O)C[C@H](OC(C)=O)[C@@](C)([C@@H]23)[C@H]2CC[C@]3(C)C(=CC(=O)[C@H]3c3ccoc3)[C@]12C` (stereo not given in full) [CIPADESIN L], the negative-log IC50 (pIC50) with SW480, in the assay on A549, in the assay with MCF7, in the assay on SMMC-7721 and in the assay on HL-60 was less than 4.40 throughout.

For `CCC(C)C(=O)O[C@@H]1[C@@H]2OC[C@]3(C)[C@H](OC(C)=O)C[C@H](OC(C)=O)[C@](C)([C@H]4CC[C@@]5(C)[C@H](c6ccoc6)C(=O)[C@@H]6O[C@@]65[C@]14C)[C@@H]23` (stereo not given in full) [CIPADESIN M], the pIC50 in the assay on SW480, with A549, in the assay with MCF7, in the assay on SMMC-7721 and with HL-60 was less than 4.40 in each case.

For `CCC(C)C(=O)O[C@H]1C(C)(C)[C@H](CC(=O)OC)[C@]2(C)C(=O)[C@@]1(O)CC1=C3CC(=O)O[C@@H](c4ccoc4)[C@]3(C)CC[C@@H]12` (stereo not given in full) [CIPADESIN N], the pIC50 with SW480, in the assay on A549, in the assay with MCF7, with SMMC-7721 and in the assay with HL-60 was less than 4.40 in each case.

`CCC(C)C(=O)O[C@@H]1[C@H]2C(=O)[C@](C)(C3=CC[C@]4(C)[C@@H](CC(=O)O[C@H]4c4ccoc4)[C@]34O[C@H]24)[C@@H](CC(=O)OC)C1(C)C` (stereo not given in full) [CIPADESIN O]: the negative logarithm of the IC50 (pIC50) in the assay with SW480, in the assay on A549, in the assay with MCF7, in the assay with SMMC-7721 and with HL-60 was less than 4.40 throughout.

On to `C=C1[C@]2(O)C(=O)C[C@@]3(C)[C@H](c4ccoc4)OC(=O)C[C@]13O[C@H]1[C@@H](OC(C)=O)[C@@H](OC(C)=O)C(C)(C)[C@H](CC(=O)OC)[C@]12C` [CIPADESIN P], for which the pIC50 with SW480, in the assay on A549, in the assay on MCF7, in the assay on SMMC-7721 and with HL-60 was less than 4.40 throughout.

Consider `C=C1[C@]2(O)CC[C@@]3(C)[C@H](c4ccoc4)OC(=O)C[C@]13O[C@H]1C[C@@H](OC(C)=O)C(C)(C)[C@H](CC(=O)OC)[C@]12C` [CIPADESIN Q], for which the pIC50 in the assay on SW480, in the assay with A549, with MCF7, in the assay on SMMC-7721 and in the assay with HL-60 was less than 4.40 throughout.
